Assay results taken from publication PMC9284121, “Florfenicol-Polyarginine Conjugates Exhibit Promising Antibacterial Activity Against Resistant Strains” (Frontiers in Chemistry, 2022).
In brackets after ≈: the same amount, converted by molar mass. Read-outs that look alike come from different tables or passages of the source. Where a SMILES comes first, the peptide text is derived from it.

How the values were obtained:
Assay in all cases: microbe, parasite or virus in culture
[1] = system: E. coli clinical strain 2019XJ06; assay type: cell-based, Escherichia coli
Description: (§1) All the florfenicol-polyarginine conjugates were tested against Gram-positive and Gram-negative bacteria, including MRSA (ATCC 43300), S. aureus (ATCC 25923), E. coli (ATCC 25922), clinical strains of E. coli (2019XJ06, 2019XJ25, 2018XJ108, 2018XJ105, 2018XJ30) and clinical strains of florfenicol resistant E. coli (2017XJ30, 2019XJ20).
(§2) Gram-negative E. coli (ATCC 25922), clinical strains of E. coli (2019XJ06, 2019XJ25, 2018XJ108, 2018XJ105, 2018XJ30) and clinical strains of florfenicol resistant E. coli (2017XJ30, 2019XJ20) and Gram-positive MRSA (ATCC 43300) and S. aureus (ATCC 25923) were maintained in 50% glycerol at −80°C up to the time of use. The bacterial strains were cultured in Muller-Hinton broth (Guangdong Huan Kai Microbial Sci. &Tech. Co., Ltd. in China) media. Mueller-Hinton agar (Guangdong Huan Kai Microbial Sci. & Tech. Co., Ltd. in China) was used as growth medium in solid media.
(§3) CLSI guidelines were followed for determining MICs of all florfenicol-polyarginine conjugates by the broth microdilution method. The required bacterial (E. coli, S. aureus and MRSA) single colony was inoculated into Muller-Hinton broth (MHB) and cultured for 4–6 h. And then, the bacteria were adjusted to 10^6 CFU/ml in cultures. All compounds were prepared into a stock solution at a concentration of 0.1 mol/L with DMSO. The stock solutions were then diluted to required concentration (100, 50, 25, 12.5, 6.25, 3.125, 1.56, 0.78, 0.39 μmol/L) with MHB media. Subsequently, a 96 well plate was filled with these dilutions and 10^6 CFU/ml bacterial suspension. The diluted compounds of different concentrations (100 µl) were first added to 96 well plate, and then 100 µl bacterial dilutions (10^6 CFU/ml) was added. The negative and positive controls were 200 µl of MHB media and 100 µl of bacterial suspension combined with 100 µl of MHB media, respectively. The experiment of each compound was repeated three times, and each experiment was at least twice repeated. The 96 well plates were incubated at 37°C for 16–24 h. MIC indicated antibacterial activity. Florfenicol was used as a control drug.

[2] = system: E. coli clinical strain 2018XJ108; assay type: cell-based, Escherichia coli
Description: as §1, §2, §3

[3] = system: E. coli clinical strain 2019XJ25; assay type: cell-based, Escherichia coli
Description: as §1, §2, §3

E.coli (ATCC 25922) = assay type: cell-based, Escherichia coli
Description: as §1, §2, §3

[4] = system: E. coli clinical strain 2018XJ30; assay type: cell-based, Escherichia coli
Description: as §1, §2, §3

[5] = system: E. coli clinical strain 2018XJ105; assay type: cell-based, Escherichia coli
Description: as §1, §2, §3

[6] = system: florfenicol resistant E. coli clinical strain 2019XJ20; assay type: cell-based, Escherichia coli
Description: as §1, §2, §3

[7] = system: florfenicol resistant E. coli clinical strain 2017XJ30; assay type: cell-based, Escherichia coli
Description: as §1, §2, §3

[8] = system: 10 strains tested (E. coli, S. aureus, MRSA, clinical E. coli strains); assay type: cell-based
Description: as §1, §2, §3

MRSA (ATCC 43300) = assay type: cell-based, methicillin-resistant S. aureus
Description: as §1, §2, §3

S. aureus (ATCC 292130) = assay type: cell-based, Staphylococcus aureus
[9] = Escherichia coli, clinical E. coli 2019XJ06, MHB, read-out: MIC
[10] = Escherichia coli, clinical E. coli 2018XJ108, MHB, read-out: MIC
[11] = Escherichia coli, clinical E. coli 2019XJ25, MHB, read-out: MIC
[12] = Escherichia coli, ATCC25922, E.coli (ATCC 25922), MHB, read-out: MIC
[13] = Escherichia coli, clinical E. coli 2018XJ30, MHB, read-out: MIC
[14] = Escherichia coli, clinical E. coli 2018XJ105, MHB, read-out: MIC
[15] = Escherichia coli, florfenicol resistant E. coli 2019XJ20, MHB, read-out: MIC
[16] = Escherichia coli, florfenicol resistant E. coli 2017XJ30, MHB, read-out: MIC
[17] = Escherichia coli, against the 10 strains tested, read-out: MIC
[18] = Staphylococcus aureus, MRSA (ATCC 43300), MHB, read-out: MIC
[19] = Staphylococcus aureus, ATCC292130, S. aureus (ATCC 292130), MHB, read-out: MIC
[20] = florfenicol resistant clinical strain 2019XJ20
[21] = florfenicol resistant clinical strain 2017XJ30

| SMILES | MIC ([1]; clinical strain 2019XJ06) [µmol/L] | MIC ([2]; clinical strain 2018XJ108) [µmol/L] | MIC ([3]; clinical strain 2019XJ25) [µmol/L] | MIC (E.coli (ATCC 25922); ATCC 25922) [µmol/L] | MIC ([4]; clinical strain 2018XJ30) [µmol/L] | MIC ([5]; clinical strain 2018XJ105) [µmol/L] | MIC [6, 20] [µmol/L] | MIC [7, 21] [µmol/L] | MIC (MRSA (ATCC 43300); ATCC 43300) [µmol/L] | MIC (S. aureus (ATCC 292130); ATCC 292130) [µmol/L] | other results |
| --- | --- | --- | --- | --- | --- | --- | --- | --- | --- | --- | --- |
| CS(=O)(=O)c1ccc([C@@H](OC(=O)CCCC(=O)O)[C@@H](CF)NC(=O)C(Cl)Cl)cc1 [Compound C2, florfenicol glutarate] | – | – | – | – | – | – | – | – | – | – | MIC [1, 9]: > 100 µmol/L; MIC [2, 10]: > 100 µmol/L; MIC [3, 11]: > 100 µmol/L; MIC (E.coli (ATCC 25922); [12]): > 100 µmol/L; MIC [4, 13]: > 100 µmol/L; MIC [5, 14]: > 100 µmol/L; MIC [6, 15]: > 100 µmol/L; MIC [7, 16]: > 100 µmol/L; MIC [8, 17]: > 100 µM; MIC (MRSA (ATCC 43300); [18]): > 100 µmol/L; MIC (S. aureus (ATCC 292130); [19]): > 100 µmol/L |
| CS(=O)(=O)c1ccc([C@@H](OC(=O)CCC(=O)N[C@@H](CCCNC(=N)N)C(N)=O)[C@@H](CF)NC(=O)C(Cl)Cl)cc1 [Compound E2] | 25 (≈ 15.3 µg/mL) | 25 (≈ 15.3 µg/mL) | 25 (≈ 15.3 µg/mL) | 25 (≈ 15.3 µg/mL) | 25 (≈ 15.3 µg/mL) | 25 (≈ 15.3 µg/mL) | >100 | >100 | 25 (≈ 15.3 µg/mL) | 25 (≈ 15.3 µg/mL) | – |
| CS(=O)(=O)c1ccc([C@@H](OC(=O)CCCCC(=O)O)[C@@H](CF)NC(=O)C(Cl)Cl)cc1 [Compound C3] | – | – | – | – | – | – | – | – | – | – | MIC [1, 9]: > 100 µmol/L; MIC [2, 10]: > 100 µmol/L; MIC [3, 11]: > 100 µmol/L; MIC (E.coli (ATCC 25922); [12]): > 100 µmol/L; MIC [4, 13]: > 100 µmol/L; MIC [5, 14]: > 100 µmol/L; MIC [6, 15]: > 100 µmol/L; MIC [7, 16]: > 100 µmol/L; MIC [8, 17]: > 100 µM; MIC (MRSA (ATCC 43300); [18]): > 100 µmol/L; MIC (S. aureus (ATCC 292130); [19]): > 100 µmol/L |
| N=C(N)NCCC[C@H](NC(=O)[C@@H](N)CCCNC(=N)N)C(N)=O [Compound D3] (H-Arg-Arg-NH2) | >100 | >100 | >100 | >100 | >100 | >100 | >100 | >100 | >100 | >100 | – |
| N=C(N)NCCC[C@H](NC(=O)[C@H](CCCNC(=N)N)NC(=O)[C@H](CCCNC(=N)N)NC(=O)[C@@H](N)CCCNC(=N)N)C(N)=O [Compound D4] (H-RRRR-NH2) | >100 | >100 | >100 | >100 | >100 | >100 | >100 | >100 | >100 | >100 | – |
| N=C(N)NCCC[C@H](N)C(N)=O [Compound D2] | >100 | >100 | >100 | >100 | >100 | >100 | >100 | >100 | >100 | >100 | – |
| N=C(N)NCCC[C@H](NC(=O)[C@H](CCCNC(=N)N)NC(=O)[C@H](CCCNC(=N)N)NC(=O)[C@H](CCCNC(=N)N)NC(=O)[C@H](CCCNC(=N)N)NC(=O)[C@@H](N)CCCNC(=N)N)C(N)=O [Compound D5] | 100 (≈ 95.4 µg/mL) | 100 (≈ 95.4 µg/mL) | 100 (≈ 95.4 µg/mL) | 100 (≈ 95.4 µg/mL) | 100 (≈ 95.4 µg/mL) | 100 (≈ 95.4 µg/mL) | 100 (≈ 95.4 µg/mL) | 100 (≈ 95.4 µg/mL) | 50 (≈ 47.7 µg/mL) | 50 (≈ 47.7 µg/mL) | MIC [8]: 25 to 100 µM |
| CS(=O)(=O)c1ccc([C@@H](OC(=O)CCCC(=O)N[C@@H](CCCNC(=N)N)C(N)=O)[C@@H](CF)NC(=O)C(Cl)Cl)cc1 [Compound E8] | >100 | >100 | >100 | >100 | >100 | >100 | >100 | >100 | >100 | >100 | – |
| COC(=O)[C@H](CCCNC(=N)N)NC(=O)CCC(=O)O[C@H](c1ccc(S(C)(=O)=O)cc1)[C@@H](CF)NC(=O)C(Cl)Cl [Compound E1] | 25 (≈ 15.7 µg/mL) | 25 (≈ 15.7 µg/mL) | 25 (≈ 15.7 µg/mL) | 25 (≈ 15.7 µg/mL) | 25 (≈ 15.7 µg/mL) | 25 (≈ 15.7 µg/mL) | >100 | >100 | 50 (≈ 31.4 µg/mL) | 50 (≈ 31.4 µg/mL) | – |
| COC(=O)[C@H](CCCNC(=N)N)NC(=O)CCCC(=O)O[C@H](c1ccc(S(C)(=O)=O)cc1)[C@@H](CF)NC(=O)C(Cl)Cl [Compound E7] | >100 | >100 | >100 | >100 | >100 | >100 | >100 | >100 | >100 | >100 | – |
| COC(=O)[C@H](CCCNC(=N)N)NC(=O)CCCCC(=O)O[C@H](c1ccc(S(C)(=O)=O)cc1)[C@@H](CF)NC(=O)C(Cl)Cl [Compound E13] | >100 | >100 | >100 | >100 | >100 | >100 | >100 | >100 | >100 | >100 | – |
| COC(=O)[C@@H](N)CCCNC(=N)N [Compound D1] | >100 | >100 | >100 | >100 | >100 | >100 | >100 | >100 | >100 | >100 | – |
| CS(=O)(=O)c1ccc([C@@H](OC(=O)CCC(=O)O)[C@@H](CF)NC(=O)C(Cl)Cl)cc1 [Compound C1, florfenicol succinate] | – | – | – | – | – | – | – | – | – | – | MIC [1, 9]: > 100 µmol/L; MIC [2, 10]: > 100 µmol/L; MIC [3, 11]: > 100 µmol/L; MIC (E.coli (ATCC 25922); [12]): > 100 µmol/L; MIC [4, 13]: > 100 µmol/L; MIC [5, 14]: > 100 µmol/L; MIC [6, 15]: > 100 µmol/L; MIC [7, 16]: > 100 µmol/L; MIC [8, 17]: > 100 µM; MIC (MRSA (ATCC 43300); [18]): > 100 µmol/L; MIC (S. aureus (ATCC 292130); [19]): > 100 µmol/L |
| CS(=O)(=O)c1ccc([C@@H](OC(=O)CCCCC(=O)N[C@@H](CCCNC(=N)N)C(N)=O)[C@@H](CF)NC(=O)C(Cl)Cl)cc1 [Compound E14] | >100 | >100 | >100 | >100 | >100 | >100 | >100 | >100 | >100 | >100 | – |
